Values quoted from earlier work, collected in patent US20080193567A1, “Pharmaceutical Canscora Diffusa-Containing Composition” (priority 2004, published 2008).

Tests used:
[1] = interpreted as an effect against stress and anxiety
[2] = system: Mycobacterium tuberculosis
[3] = animal experiments

## dichotosinin
[1]
  adaptogenic effect: “adaptogenic” effect

## COc1ccc([C@@H]2CCc3c(O[C@@H]4OC(CO)[C@@H](O)[C@H](O)C4O)cc(OC)cc3O2)cc1 (some centres unmarked) [dichotosin]
[1]
  adaptogenic effect: “adaptogenic” effect

## COc1ccc([C@@H]2CCc3c(O[C@@H]4O[C@H](CO)[C@@H](O)[C@H](O)[C@H]4O)cc(O)cc3O2)cc1OC [Diffutin]
[1]
  adaptogenic effect: “adaptogenic” effect

## O=c1c2cc(O)c(O)cc2oc2cc(O)c([C@@H]3O[C@H](CO)[C@@H](O)[C@H](O)[C@H]3O)c(O)c12 [magniferin]
[2]
  effect against Mycobacterium tuberculosis: small effect
[3]
  spermicidal effect: spermicidal effect
